Measured values: US20070275366A1, “Regulation of Sperm Function” (priority 2003, published 2007)

Assays:
[1] = tested on: sperm from volunteers and patients attending fertility clinics; details: background statement, cited from earlier work
[2] = tested on: frozen-thawed spermatozoa (Bull semen samples); assay: Sperm motility by microscopy on heated stage (percentage of motile spermatozoa with linear progressive movement); format: cell-based; details: for increase in sperm motility compared to fibronectin alone / increase in sperm motility compared to the RGD plus fibronectin sample: Angiotensin II 10^−9 moles/L added to fibronectin plus RGDS sample
Procedure: Each sperm sample was packed and frozen in 0.25 ml plastic straws. The frozen spermatozoa straw (0.25 ml) was rapidly thawed by plunging it into a 37° C. water bath. When the sample was thawed, the straw was dried with a tissue, kept horizontal and cut both ends into a pre-warmed TALP medium.
Spermatozoa were washed twice by TALP medium and centrifugation at 600×g for 10 minutes, then re-suspended with TALP pre-warmed to 37° C. The motility of the frozen-thawed spermatozoa was assessed at 37° C. using thermal plates. Sperm motility and morphology was estimated by microscopical observation on a warm 37° C. stage. Semen (10 μl) was covered by a cover glass (18 mm×18 mm) and at least 5 microscopic fields were examined. Motility was expressed as the percentage of motile spermatozoa with linear progressive movement in the sample (see Vinson, G. P., Puddefoot, J. R., Ho, M. M., Barker, S., Mehta, J., Saridogan, E. and Djahanbakhch, O. (1995). “Type 1 angiotensin II (AT1) receptors in sperm”, Journal Of Endocrinology, 144, 369-378). The prepared sperm sample were incubated with additives at 37° C. in a water bath as described in each example, and assayed for motility as before.
All incubations were carried out at 37° C., using water bath and heated stage. Semen samples (10 μl) were applied to preheated (37° C.) slides and placed on the microscope heated stage and examined. The number of motile sperm were counted in the control sample at zero time, and in the treated samples after the incubation times indicated.

[3] = tested on: sperm; assay: Sperm viability, carboxyfluorescein diacetate / propidium iodide live-dead stain; format: cell-based; details: Example 7; fibronectin 5 μg/ml, stored at room temperature, after 3 days; untreated control 75% to 18%
Procedure: Stock solutions: carboxyfluorescein diacetate (0.46 mg/ml in dimethyl sulphoxide), propidium iodide (0.5 mg/ml isotonic saline), formaldehyde (10 μl formalin to 150 μl distilled water). Fluorescence stain: 50 μl carboxyfluorescein and 50 μl of propidium iodide to 2 ml sperm extender, plus 100 μl formaldehyde.
Semen were diluted with stain (1:1) dilution and incubated at room temperature […] for 15 min. Samples washed with extender, and examined for live and dead sperm.

[4] = tested on: bull spermatozoa; assay: Chlortetracycline (CTC) fluorescence assay of capacitation state; format: cell-based; details: Example 6
Text: An alternative method of assessing capacitation is by using the CTC assay (DasGupta S, Mills C L, Fraser L R. Ca(2+)-related changes in the capacitation state of human spermatozoa assessed by a chlortetracycline fluorescence assay. J Reprod Fertil. 1993 September; 99(1):135-43.; Fraser L R, Herod J E. Expression of capacitation-dependent changes in chlortetracycline fluorescence patterns in mouse spermatozoa requires a suitable glycolysable substrate. J Reprod Fertil. 1990 March; 88(2):611-21). In this method, used in Example 6 below, patterns of staining distinguish non-capacitated, capacitated and acrosome reacted sperm. Chlortetracycline (CTC) solution: CTC (750 μM CTC in Tris (20 mM)-NaCl (130 mM), DL-cysteine (5 mM), buffer (20 mM Tris/130 mM NaCl, pH 7.8). Spermatozoa samples were obtained from healthy bulls (Semex, UK). All semen samples used in this study had been frozen and thawed. Each sample was packed in 0.25 ml plastic straws. The frozen spermatozoa straw (0.25 ml) was rapidly thawed by plunging it into a 37° C. water bath. When the sample was thawed, the straw was dried with a tissue, kept horizontal and cut both ends into a pre-warmed TALP medium. Spermatozoa were washed twice by TALP medium and centrifugation at 600 g for 10 minutes, then re-suspended with TALP pre-warmed to 37° C. Spermatozoa were incubated without additives, or with either angiotensin II (10^−9 moles per litre), fibronectin (5-50 μg/ml), or with both. Treated samples (45 μl) were aliquoted into foil wrapped eppendorf tubes with CTC solution (45 μl) and fixed with 12.5% paraformaldehyde, prior to viewing by […]. Three patterns of chlortetracycline fluorescent staining may be observed on bull spermatozoa: F (uncapacitated)-pattern, bright fluorescence was detected over the whole region of the sperm head; B (capacitated)-pattern, fluorescence was detected on the sperm head but not on the postacrosomal region; AR (acrosome-reacted)-pattern, weak fluorescence was observed over the sperm head, and a bright band was sometimes observed in the equatorial region.

[5] = Example 3, fibronectin 2 μg/l added to sperm pre-incubated with RGDS, incubation of 5-10 minutes

Question: For `CCCCc1nc(Cl)c(CO)n1Cc1ccc(-c2ccccc2-c2nn[nH]n2)cc1` [losartan], which “effect on the action of angiotensin II on the percentage of motile sperm” value ([1]; specific AT1 receptor antagonist) is on record?
Answer: Its value is “inhibits the action of angiotensin II on the percentage of motile sperm”.

Question: For “Arg-Gly-Asp-Ser (RGDS; printed: Arg-Gly-Asp-Ser) [commercially available tetrapeptide used as a source of RGD]”, which “decrease in sperm motility” value ([2]; Example 3, pre-incubation with RGDS 5×10^6 moles/L for 5 min, control 62% at time zero) is on record?
Answer: The value was 19%.

Question: For fibronectin, which sperm motility ([2]; Example 1, fibronectin 2 μg/l, incubation of 5-10 minutes, 37° C., control 70% at time zero) is on record?
Answer: The sperm motility was 14%.

Question: What about the sperm motility ([2]; Example 2, fibronectin 2 μg/l, incubation of 5-10 minutes, control 79% at time zero) of the same molecule?
Answer: The sperm motility was 8%.

Question: And the “decrease of motility compared to the RGD treated sample” value [2, 5]?
Answer: Its value is 28%.

Question: And the “decrease of motility compared to the control” value [2, 5]?
Answer: The value was 47%.

Question: And the “sperm remaining viable (living sperm)” value [3]?
Answer: Its value is 48%.

Question: What about the “patterns of sperm staining (CTC)” value ([4]; fibronectin 5 μg/ml) of the same molecule?
Answer: Its value is “very similar to the untreated controls”.

Question: Which “increase in sperm motility compared to fibronectin alone” value (from here on “increase … to fibronectin alone”) ([2]; Example 1) does the source give for “Angiotensin II (DRVYIHPF; Angiotensin-2; UniProt P01019 25-32, looked up) [peptide used as capacitating agent]” here?
Answer: The value was 71%.

Question: What about the “increase in sperm motility compared to the RGD plus fibronectin sample” value (from here on “increase … to the RGD plus fibronectin sample”) ([2]; Example 1) of the same molecule?
Answer: Its value is 62%.

Question: And the “increase … to fibronectin alone” value ([2]; Example 1, 10 minutes)?
Answer: Its value is 43%.

Question: And the “increase … to the RGD plus fibronectin sample” value ([2]; Example 1, 10 minutes)?
Answer: Its value is 34%.

Question: What about the “increase … to fibronectin alone” value ([2]; Example 1, 20 minutes) of the same molecule?
Answer: Its value is 64%.

Question: And the “increase … to the RGD plus fibronectin sample” value ([2]; Example 1, 20 minutes)?
Answer: Its value is 55%.

Question: What about the sperm motility ([2]; Example 2, Angiotensin II 10^−9 moles/L added to fibronectin (2 μg/l) sample, 10 minutes) of the same molecule?
Answer: Its sperm motility is 64%.

Question: What about the sperm motility ([2]; Example 2, Angiotensin II 10^−9 moles/L added to fibronectin (2 μg/l) sample, 20 minutes) of the same molecule?
Answer: The sperm motility was 62%.

Question: What about the sperm motility ([2]; Example 2, Angiotensin II 10^−9 moles/L added to fibronectin (2 μg/l) sample, 3040 minutes) of the same molecule?
Answer: The sperm motility was 62%.

Question: And the sperm motility ([2]; Example 3, Angiotensin II 10^−9 moles/L added to fibronectin+RGDS sample, 10 minutes)?
Answer: The sperm motility was 43%.

Question: And the sperm motility ([2]; Example 3, Angiotensin II 10^−9 moles/L added to fibronectin+RGDS sample, 20 minutes)?
Answer: The sperm motility was 54%.

Question: And the sperm motility ([2]; Example 3, Angiotensin II 10^−9 moles/L added to fibronectin+RGDS sample, 3040 minutes)?
Answer: The sperm motility was 54%.

Question: What about the “change in sperm motility” value ([2]; Example 4, Angiotensin II 10^−9 moles/L added to vitronectin sample, 5 to 35 minutes) of the same molecule?
Answer: The value was “significant increase”.

Question: What about the “change in sperm motility” value ([2]; Example 5, Angiotensin II 10^−9 moles/L added to laminin sample, 10 to 40 minutes) of the same molecule?
Answer: The value was “significant increase”.

Question: And the “effect on percentage of motile sperm and linear velocity” value [1]?
Answer: Its value is “may increase both the percentage of motile sperm and their linear velocity”.

Question: What about the “capacitated sperm (B pattern)” value ([4]; angiotensin II only (10^−9 moles per litre), 60 min incubation) of the same molecule?
Answer: Its value is 45%.

Question: And the “uncapacitated sperm (F pattern)” value ([4]; angiotensin II only (10^−9 moles per litre), 60 min incubation, control about 60%, 55% by 30 min)?
Answer: Its value is roughly 18%.

Question: For “laminin: extracellular matrix protein (250 μg/ml, Sigma)”, which “change in total sperm motility” value ([2]; Example 5, laminin 2 μg/l, 10 min, 37° C.) is on record?
Answer: The value was “significant decrease”.

B1: vitronectin: extracellular matrix protein (250 μg/ml, Sigma) (protein, UniProt P04004 20-478, looked up)
Vitronectin: DQESCKGRCTEGFNVDKKCQCDELCSYYQSCCTDYTAECKPQVTRGDVFTMPEDEYTVYDDGEEKNNATVHEQVGGPSLTSDLQAQSKGNPEQTPVLKPEEEAPAPEVGASKPEGIDSRPETLHPGRPQPPAEEELCSGKPFDAFTDLKNGSLFAFRGQYCYELDEKAVRPGYPKLIRDVWGIEGPIDAAFTRINCQGKTYLFKGSQYWRFEDGVLDPDYPRNISDGFDGIPDNVDAALALPAHSYSGRERVYFFKGKQYWEYQFQHQPSQEECEGSSLSAVFEHFAMMQRDSWEDIFELLFWGRTSAGTRQPQFISRDWHGVPGQVDAAMAGRIYISGMAPRPSLAKKQRFRHRNRKGYRSQRGHSRGRNQNSRRPSRATWLSLFSSEESNLGANNYDDYRMDWLVPATCEPIQSVFFFSGDKYYRVNLRTRRVDTVDPPYPRSIAQYWLGCPAPGHL
Question: Which “change in total sperm motility” value ([2]; Example 4, vitronectin 2 μg/l, 5 minutes, 37° C.) does the source give for B1 here?
Answer: The value was “highly significant decrease”.
